From ChEMBL document CHEMBL1201862, “PubChem BioAssay data set” (2004)
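Cultured in 96-well plates, cells were exposed to test compound for 48 hours across five concentrations. GI50: concentration for 50% inhibition of growth.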 Activity calls are given as the source filed them. Rule as the data show it: active = GI50 up to about 1.1 µM and inactive = higher.

Legend:
Test in all cases: NCI tumour cell line growth inhibition, 48 h
[1] = tested on: A498
[2] = tested on: ACHN
[3] = tested on: HCC 2998
[4] = tested on: HOP-62
[5] = tested on: LOX IMVI
[6] = tested on: Malme-3M
[7] = tested on: OVCAR-3
[8] = tested on: RXF 393
[9] = tested on: SF-268
[10] = tested on: SF-295
[11] = tested on: SK-MEL-28
[12] = tested on: SN12C
[13] = tested on: U-251
[14] = tested on: CAKI-1
[15] = tested on: SK-MEL-5
[16] = tested on: SW-620
[17] = tested on: HOP-92

Measured: GI50

Cc1cc(NS(=O)(=O)c2ccc(NC(=O)c3ccc(Cl)c4c(Nc5ccc(S(=O)(=O)N=C(N)N)cc5)c5ccccc5nc34)cc2)no1
inactive: [1] > 100 µM | [2] > 100 µM | [3] 22.3 µM | [4] 21.6 µM | [5] 28.1 µM | [6] > 100 µM | [7] 27 µM | [8] 19.2 µM | [9] 42.3 µM | [10] > 100 µM | [11] 87.5 µM | [12] 32.3 µM | [13] 18 µM

COc1cc(N)c2[nH]c3c(C)ccc(C)c3c2c1
inactive: [2] > 100 µM | [14] > 100 µM | [3] > 100 µM | [4] > 100 µM | [5] > 100 µM | [6] > 100 µM | [7] > 100 µM | [9] > 100 µM | [10] > 100 µM | [11] > 100 µM | [15] > 100 µM | [12] > 100 µM | [16] > 100 µM

Cc1ccc(C(O)(c2ccc(C)cc2)c2ccccn2)cc1
inactive: [1] > 100 µM | [2] > 100 µM | [14] > 100 µM | [3] > 100 µM | [4] > 100 µM | [5] > 100 µM | [6] > 100 µM | [7] > 100 µM | [9] > 100 µM | [10] > 100 µM | [11] > 100 µM | [15] > 100 µM | [12] > 100 µM | [16] > 100 µM | [13] > 100 µM

COC(=O)/C(=N\NC(=S)NN)C(C(=O)C(=O)Nc1ccccc1C(N)=O)c1nc2ccccc2nc1O (centres undefined)
inactive: [2] > 100 µM | [14] > 100 µM | [3] > 100 µM | [17] 43.5 µM | [6] > 100 µM | [8] > 100 µM | [9] > 100 µM | [10] > 100 µM | [11] > 100 µM | [15] > 100 µM | [12] > 100 µM | [16] > 100 µM | [13] > 100 µM

O=C(O)c1nccnc1C(=O)O
inactive: [14] > 100 µM | [3] > 100 µM | [17] > 100 µM | [5] > 100 µM | [6] > 100 µM | [8] > 100 µM | [9] > 100 µM | [10] > 100 µM | [11] > 100 µM | [15] > 100 µM | [12] > 100 µM | [16] > 100 µM | [13] > 100 µM

COC(=O)C1=C(C(=O)OC)C2(C)OC1C(=O)C21CC1 (centres undefined)
inactive: [2] 19.3 µM | [14] 18.6 µM | [3] 25.5 µM | [4] > 100 µM | [5] 18.8 µM | [6] 23.9 µM | [7] 22.1 µM | [8] 16.8 µM | [9] 54.5 µM | [10] 44 µM | [15] > 100 µM | [12] 22.9 µM | [16] 19.5 µM | [13] > 100 µM

OCn1nc2c(C3OCCO3)cc3ccccc3n2c1=S
inactive: [1] > 100 µM | [2] > 100 µM | [14] > 100 µM | [4] > 100 µM | [17] > 100 µM | [5] > 100 µM | [6] > 100 µM | [7] > 100 µM | [8] > 100 µM | [9] > 100 µM | [10] > 100 µM | [11] > 100 µM | [15] > 100 µM | [12] > 100 µM | [16] > 100 µM | [13] > 100 µM

COc1cccc(/C=C(/C(=O)O)c2cc(OC)c(OC)c(OC)c2)c1
inactive: [1] > 100 µM | [2] > 100 µM | [14] > 100 µM | [4] > 100 µM | [17] 92.3 µM | [5] > 100 µM | [6] > 100 µM | [7] > 100 µM | [8] 45.2 µM | [9] > 100 µM | [10] > 100 µM | [11] > 100 µM | [15] > 100 µM | [12] > 100 µM | [16] > 100 µM | [13] > 100 µM

COc1ccc2[nH]cc(CCNC(C)=O)c2c1 [MELATONIN]
inactive: [1] > 100 µM | [2] > 100 µM | [14] > 100 µM | [4] > 100 µM | [17] > 100 µM | [5] 39.8 µM | [6] > 100 µM | [7] > 100 µM | [8] > 100 µM | [9] > 100 µM | [10] > 100 µM | [11] > 100 µM | [15] > 100 µM | [12] > 100 µM | [16] 8.17 µM | [13] > 100 µM
